The melting point is the temperature, or range, at which the solid turns liquid.

On to `O=c1cc(-n2ccnc2)c2cc(C(c3ccc(Cl)cc3)n3ccnc3)ccc2[nH]1` (centres unmarked) [Example B1, 6-[(4-chlorophenyl)-1H-imidazol-1-ylmethyl]-4-(1H-imidazol-1-yl)-2(1H)-quinolinone], for which the melting point was determined as 242.3 °C.

Consider `Cn1cncc1C(O)(c1ccc(Cl)cc1)c1ccc2c(c1)c(-c1cccs1)cc(=O)n2C` (centres unmarked) [Example B2, 6-[(4-chlorophenyl)hydroxy(1-methyl-1H-imidazol-5-yl)methyl]-1-methyl-4-(2-thienyl)-2(1H)-quinolinone], for which the melting point is greater than 260 °C.

The compound `Cn1cncc1C(O)(c1ccc(Cl)cc1)c1ccc2[nH]c(=O)cc(-c3cccnc3)c2c1` (centres unmarked) [Example B3, 6-[(4-chlorophenyl)hydroxy(1-methyl-1H-imidazol-5-yl)methyl]-4-(3-pyridinyl)-2(1H)-quinolinone] returned a melting point greater than 250 °C.

In turn, `Cn1cncc1C(O)(c1ccc(Cl)cc1)c1ccc2c(c1)c(-c1nc(-c3ccccc3)cs1)cc(=O)n2C` (centres unmarked) [Example B4, 6-[(4-chlorophenyl)hydroxy(1-methyl-1H-imidazol-5-yl)methyl]-1-methyl-4-(4-phenyl-2-thiazolyl)-2(1H)-quinolinone] came in with a melting point of 200 °C.

`Cn1cncc1C(c1ccc(Cl)cc1)c1ccc2c(c1)c(-c1nc(-c3ccccc3)cs1)cc(=O)n2C` (centres unmarked) [Example B6, 6-[(4-chlorophenyl)(1-methyl-1H-imidazol-5-yl)methyl]-1-methyl-4-(4-phenyl-2-thiazolyl)-2(1H)-quinolinone] returned a melting point of 171 °C.

In the case of `Cn1cncc1C(N)(c1ccc(Cl)cc1)c1ccc2c(c1)c(-c1nc(-c3ccccc3)cs1)cc(=O)n2C` (centres unmarked) [Example B7, 6-[amino(4-chlorophenyl)(1-methyl-1H-imidazol-5-yl)methyl]-1-methyl-4-(4-phenyl-2-thiazolyl)-2(1H)-quinolinone], the melting point was found to be 237 °C.

`CC(=O)NC(c1ccc(Cl)cc1)(c1ccc2c(c1)c(-c1nc(-c3ccccc3)cs1)cc(=O)n2C)c1cncn1C` (centres unmarked) [Example B8, N-[(4-chlorophenyl)[1,2-dihydro-1-methyl-2-oxo-4-(4-phenyl-2-thiazolyl)-6-quinolinyl](1-methyl-1H-imidazol-5-yl)methyl]-acetamide] returned a melting point of 244 °C.

Turning to `Cn1c(=O)cc(-c2nc(-c3ccccc3)cs2)c2cc(C(c3ccc(Cl)cc3)c3cnc(-c4ccccc4)[nH]3)ccc21` (centres unmarked) [Example B9 (F2), 6-[(4-chlorophenyl)(2-phenyl-1H-imidazol-5-yl)methyl]-1-methyl-4-(4-phenyl-2-thiazolyl)-2(1H)-quinolinone], the melting point was determined as 190 °C.

As to `Cn1cncc1C(O)(c1ccc(Cl)cc1)c1ccc2c(c1)c(CCc1ccc(Cl)s1)cc(=O)n2C` (centres unmarked) [Example B10, 6-[(4-chlorophenyl)hydroxy(1-methyl-1H-imidazol-5-yl)methyl]-4-[2-(5-chloro-2-thienyl)ethyl]-1-methyl-2(1H)-quinolinone], the melting point was determined as 128 °C.

In the case of `Cn1c(=O)cc(CCc2ccc(Cl)s2)c2cc(C(O)(c3ccc(Cl)cc3)c3cccnc3)ccc21` (centres unmarked) [Example B13, 6-[(4-chlorophenyl)hydroxy-3-pyridinylmethyl]-4-[2-(5-chloro-2-thienyl)ethyl]-1-methyl-2(1H)-quinolinone], the melting point was determined as 110 °C.

Consider `Cn1c(=O)cc(CCc2ccc(Cl)s2)c2cc(C(N)(c3ccc(Cl)cc3)c3cccnc3)ccc21` (centres unmarked) [Example B14, 6-[amino(4-chlorophenyl)-3-pyridinylmethyl]-4-[2-(5-chloro-2-thienyl)ethyl]-1-methyl-2(1H)-quinolinone], for which the melting point was determined as 100 °C.

(Values after patent publication US20060135769A1, “Farnesyl transferase inhibiting 4-heterocyclyl-quinoline and quinazoline derivatives” (priority 2000, published 2006).)
